Data reported in US9828344B2, “Inhibitors of the notch signaling pathway and secretion for use in medicine” (Leibniz-Institut für Altersforschung Fritz-Lipmann-Institut …, priority 2012, dated 2017).
Read-outs that look alike come from different tables or passages of the source.

Columns and labels:
[1] = target: T1, GBF1 (Homo sapiens, UniProt Q92538); experiment: GBF1-GFP distribution in transfected HeLa cells; type: cell-based; settings: FLI-06 10 μM, BFA 10 μg/ml, GCA 10 μM, 10 h
T1 construct: expressed in transfected cells; host or cells: HeLa (transient)

[2] = system: BIP and ATF6
[3] = system: Golgi apparatus; experiment: Immunofluorescence of Golgi and early secretory pathway markers in HeLa cells; type: cell-based
[4] = system: endocytosis; experiment: Transferrin uptake assay; type: cell-based
Description: FIG. 13: FLI-06 causes dispersal of early Golgi and TGN, but no tubulation of endosomes. Hela cells were incubated with DMSO or 10 iM FLI-06 or 1 ig/ml BFA for 18 h, fixed, stained with antibodies as indicated and imaged by fluorescence microscopy. Endosomes were visualized by adding Alexa555-labelled transferrin on ice and chasing for 15 min at 37° C. in the presence of indicated compounds. Arrows indicated tubulating endosomes, scalebar 10 im.
For the transferrin uptake assay cells were starved in serum free medium for 1 h at 37° C. Cells were then transferred on ice and medium was exchanged to serum free medium supplemented with 25 μg/ml AlexaFluor555-Transferrin conjugate (Molecular Probes) and test compounds. After 15 min on ice cells were incubated with pre-warmed serum-supplemented medium containing test compounds and incubated at 37° C.

[5] = system: YFP-GPI; experiment: Surface transport of YFP-GPI in HeLa cells; type: cell-based; settings: 18 h; 1 ig/ml BFA or 10 iM FLI-06
[6] = system: KlothoS; experiment: Secretion of KlothoS from transfected HeLa cells; type: cell-based; settings: 18 h
Description: Thereafter cells were fixed and analyzed by immunofluorescence microscopy. […] After incubating with compounds for 18 h media were collected, cells lysed and both analyzed by Western Blotting using Klotho antibody. As loading control membranes were probed for actin. […] […] Tunicamycin (Tun) and 5 mM DTT were used as positive controls. […] Shown is the average of three independent experiments, error bars indicate standard deviation.

[7] = system: BIP and ATF6; experiment: ER stress: BIP Western blot and ATF6 luciferase assay in HeLa cells; settings: 6 or 24 h
[8] = system: microtubuli or actin; experiment: Microtubule and actin integrity in HeLa cells; type: cell-based; settings: 4 h
[9] = system: NotchΔE-EGFP; experiment: cells; type: cell-based
Text: To identify novel regulatory factors involved in Notch trafficking/processing an image-based high content screen was set up. […] NotchΔE-EGFP is a direct substrate for γ-secretase at the PM, and under physiological conditions is proteolytically processed to NICD-EGFP that translocates into the nucleus (for scheme see FIG. 1b), resulting in a strong nuclear EGFP-staining in steady state^15 (FIG. 1d). […] Importantly, changes in subcellular localization of the reporter are amenable to quantitation by automated microscopy^15. Accordingly, reporter fluorescence was determined in the nucleus (nuc) and in a ring around the nucleus (enuc), and the ratio enuc/nuc was evaluated (schematized in FIG. 1c). Thereafter, the assay design was functionally validated. […] The assay also reliably detected trafficking defects in the secretory pathway. […] Taken together, the assay was validated for reliably detecting concentration and time dependent changes in trafficking and processing of the Notch reporter.
Cells were seeded in 96-well plates at a density of 5000 cells/well in 100 μl medium. The next day, 100 μl medium containing the respective test compounds was added. Cells were incubated for 16 h, fixed and processed for automated microscopy. For the putative gamma-secretase inhibitors the enuc intensity was divided by the DAPT control and for the trafficking inhibitors normalized percentage inhibition against DAPT/DMSO controls of log 2 transformed nuc/enuc ratios were calculated. Relative activity values were read into “R” (http://www.r-project.org/) and EC50 estimates were calculated using four-parameter log-logistic fit with the package “drc”^51.
Images were acquired on an ArrayScan VTi automated microscope (ThermoFisher) and numerical data were extracted with the Compartmental Analysis BioApplication of the bundled software suite. Compound screening raw data were collected at the FMP and data transformation was performed according to standard procedures (ref 17 and supp. Refs 6-7).

[10] = system: COPII vesicles; experiment: In vitro COPII budding assay with permeabilized cells; type: biochemical; settings: no FLI-06 pretreatment of cells
[11] = system: ER; experiment: ER tubule-to-sheet live-cell imaging in COS cells (prlss-KDEL-mRFP); type: cell-based; settings: 10 iM, 2 h
Description: FIG. 7: FLI-06 induces ER sheet formation. A) COS cells transfected with prlss-KDEL-mRFP were incubated with 10 μM FLI-06 for indicated times and imaged by live-cell microscopy. The inserts are magnifications of the boxed areas. B) Images from cells treated as in A) were scored for the percentage of cells that lost most of their ER-tubules. For each time point 40-60 cells were counted. Data represent mean percentages, error bars SEM, n=3 independent experiments.
FIG. 16: Only ER exit inhibitors convert ER tubules to sheets. COS cells plated on LabTek chambered coverslips were transiently transfected with the ER-marker prlss-KDEL-mRFP, incubated the next day for 2 h with 10 iM of indicated compounds and imaged by live-cell microscopy. […] FLI-06+CHX, cells were additionally incubated in 40 iM cycloheximide. Nife, nifedipine; nimo, nimodipine. Numbers refer to numbering in FIG. 5a.
We noted a morphological change of the ER upon FLI-06 incubation that was difficult to capture in fixed cells. Live-cell imaging was therefore performed in COS cells transfected with the ER marker prlss-KDEL-mRFP (supp. Ref 3) and FLI-06 was added for 120 min (FIG. 7a). After 120 min almost all cells had no detectable ER-tubules anymore and instead were filled with large sheet-like structures. […] To test whether the morphological change is related to the inhibition of ER exit, next our set of FLI-06 derivatives was tested. […] Rather, the ER-sheets are indicative for structural changes, maybe initiated within ERES, that inhibit ER exit.

T1 sequence (Q92538 whole entry, species assumed): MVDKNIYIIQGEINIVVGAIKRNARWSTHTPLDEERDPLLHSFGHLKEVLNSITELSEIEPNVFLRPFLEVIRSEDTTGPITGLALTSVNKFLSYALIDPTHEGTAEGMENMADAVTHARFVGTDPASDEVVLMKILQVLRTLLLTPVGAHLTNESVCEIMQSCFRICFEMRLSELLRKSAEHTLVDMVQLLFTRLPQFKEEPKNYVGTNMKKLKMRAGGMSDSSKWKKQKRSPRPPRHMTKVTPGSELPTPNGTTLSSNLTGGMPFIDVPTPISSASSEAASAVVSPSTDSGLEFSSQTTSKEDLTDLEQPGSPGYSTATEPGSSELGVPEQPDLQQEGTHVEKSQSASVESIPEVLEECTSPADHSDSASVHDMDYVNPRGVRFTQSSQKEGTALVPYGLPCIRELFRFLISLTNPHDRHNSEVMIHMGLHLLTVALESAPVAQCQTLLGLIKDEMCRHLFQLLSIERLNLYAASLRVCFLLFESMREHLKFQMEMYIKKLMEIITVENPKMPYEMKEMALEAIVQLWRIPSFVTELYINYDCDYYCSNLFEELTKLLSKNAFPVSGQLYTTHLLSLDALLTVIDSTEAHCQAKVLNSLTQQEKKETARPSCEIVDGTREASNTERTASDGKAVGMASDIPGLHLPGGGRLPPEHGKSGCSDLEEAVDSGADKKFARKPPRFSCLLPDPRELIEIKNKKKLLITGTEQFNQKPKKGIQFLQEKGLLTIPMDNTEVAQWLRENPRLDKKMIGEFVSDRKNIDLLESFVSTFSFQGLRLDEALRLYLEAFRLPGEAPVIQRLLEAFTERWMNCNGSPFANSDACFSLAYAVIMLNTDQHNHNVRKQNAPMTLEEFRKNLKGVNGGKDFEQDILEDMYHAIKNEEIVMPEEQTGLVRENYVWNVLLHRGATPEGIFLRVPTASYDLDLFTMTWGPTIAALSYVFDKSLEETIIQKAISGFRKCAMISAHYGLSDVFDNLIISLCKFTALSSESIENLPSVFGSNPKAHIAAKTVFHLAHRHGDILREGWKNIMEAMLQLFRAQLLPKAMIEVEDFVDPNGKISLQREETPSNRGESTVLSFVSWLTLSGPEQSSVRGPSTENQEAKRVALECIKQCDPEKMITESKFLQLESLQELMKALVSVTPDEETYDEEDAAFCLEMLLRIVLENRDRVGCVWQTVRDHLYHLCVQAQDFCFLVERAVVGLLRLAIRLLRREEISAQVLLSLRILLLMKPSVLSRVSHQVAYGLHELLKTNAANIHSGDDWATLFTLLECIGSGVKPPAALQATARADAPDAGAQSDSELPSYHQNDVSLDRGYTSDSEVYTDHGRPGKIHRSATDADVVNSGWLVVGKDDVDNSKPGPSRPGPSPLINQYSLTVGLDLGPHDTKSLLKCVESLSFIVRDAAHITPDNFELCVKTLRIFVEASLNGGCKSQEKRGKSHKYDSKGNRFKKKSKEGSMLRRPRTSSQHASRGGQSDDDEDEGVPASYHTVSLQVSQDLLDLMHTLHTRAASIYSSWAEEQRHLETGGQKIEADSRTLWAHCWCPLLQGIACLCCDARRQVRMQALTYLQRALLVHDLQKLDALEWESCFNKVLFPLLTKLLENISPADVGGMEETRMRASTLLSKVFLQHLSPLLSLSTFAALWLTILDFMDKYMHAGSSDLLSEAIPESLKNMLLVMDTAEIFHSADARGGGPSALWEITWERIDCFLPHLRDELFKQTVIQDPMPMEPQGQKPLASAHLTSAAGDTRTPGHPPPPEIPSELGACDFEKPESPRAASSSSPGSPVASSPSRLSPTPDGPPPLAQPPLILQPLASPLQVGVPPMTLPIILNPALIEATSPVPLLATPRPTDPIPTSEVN

## Fc1cc(F)c2c(c1)[C@H]1C=CC[C@H]1C(c1cccnc1)N2 (mixture of isomers) [GCA, Golgicide A, reference compound]
[1]
  distribution of GBF1-GFP: recruited to the fragmented Golgi
[2]
  ER-stress (BIP up-regulation, ATF6 luciferase): caused ER-stress

## C[C@H]1CCC/C=C/[C@@H]2C[C@H](O)C[C@H]2[C@H](O)/C=C/C(=O)O1 [BFA, Brefeldin A, reference compound]
[3]; 1 ig/ml BFA or 10 iM FLI-06
  time to loss of Golgi-like juxtanuclear βCOP staining: 10 min
[3]; 10 iM FLI-06 or 1 ig/ml BFA, 18 h
  distribution of GM130 and TGN46: dispersal of the cis-Golgi marker GM130 and of the trans-Golgi network (TGN) marker TGN46
[3]; 4 h at 40° C. with cycloheximide
  hyperglycosylation of VSVG-EGFP: led to hyperglycosylation in the ER
[4]
  endocytosis of transferrin: did not affect endocytosis
[1]
  distribution of GBF1-GFP: recruited to the fragmented Golgi
[5]
  surface transport of YFP-GPI: inhibit surface transport of YFP-GPI
[6]
  secretion of KlothoS: inhibit secretion of KlothoS
[7]
  ER-stress (BIP up-regulation, ATF6 luciferase): caused ER-stress

## C=C1[C@@H](C)[C@H]2[C@H](Cc3ccccc3)NC(=O)[C@]23[C@H](OC(C)=O)/C=C/[C@@](C)(O)C(=O)[C@@H](C)C/C=C/[C@H]3[C@@H]1O [Cytochalasin D, cytochalasin D, reference compound]
[8]; 2 iM cytochalasin D or 10 iM FLI-06
  actin polymerization and distribution: depolymerized f-actin

## CC1=C(C(=O)OC2CCCCC2)C(c2ccccc2)C2=C(CC(C)(C)CC2=O)N1 (stereo not shown) [FLI-25]
[9]; SAR and prior-art comparison, FIG. 5a/5b
  activity in NotchΔE-EGFP cells (enuc/nuc ratios): inactive
[10]
  COPII budding reaction, compound added directly to the assay: neither 10 nor 100 μM of FLI-25 had an effect

## CCCCCOC(=O)C1=C(C)NC2=C(C(=O)CC(C)(C)C2)C1c1ccc([N+](=O)[O-])cc1 (stereo not shown) [FLI-27]
[11]
  ER tubule-to-sheets phenotype: elicited the tubule-to-sheets phenotype

## CC1=C(C(=O)OC2CCCCCC2)C(c2ccc([N+](=O)[O-])cc2)C2=C(CC(C)(C)CC2=O)N1 (stereo not shown) [FLI-28]
[9]; enuc/nuc ratios in NotchΔE-EGFP cells
  activity relative to compound 1 (FLI-06): twice as active as compound 1
[11]
  ER tubule-to-sheets phenotype: elicited the tubule-to-sheets phenotype

## O=S(=O)(NCCNC/C=C/c1ccc(Br)cc1)c1cccc2cnccc12 [H89, reference compound]
[10]
  COPII budding reaction, compound added directly to the assay: completely blocked formation of COPII vesicles

## CC1=C(C(=O)OC2CCCCC2)C(c2ccccc2)C2=C(CC(C)(C)CC2=O)N1 (stereo not shown) [compound 5]
[11]
  ER tubule-to-sheets phenotype: elicited the tubule-to-sheets phenotype

## COC(=O)Nc1nc2ccc(C(=O)c3cccs3)cc2[nH]1 [nocodazole, reference compound]
[8]; 1.5 ig/ml nocodazole or 10 iM FLI-06
  microtubule network: almost completely disintegrated
